Measurements from ChEMBL document CHEMBL4118067, “Isosteroidal alkaloids as potent dual-binding site inhibitors of both acetylcholinesterase and butyrylcholinesterase from the bulbs of Fritillaria walujewii” (Eur J Med Chem, 2017).
Calls of active or inactive are those of the source. The calls are words filed in the database; no cut-off is given here.

Experiments:
Cholinesterase = Cholinesterase (Equus caballus, UniProt P81908); test: Inhibition of equine serum BChE using butyrylthiocholine iodide as substrate preincubated for 15 mins followed by substrate addition measured for 30 mins by Ellman's method
[1] = Selectivity index, ratio of IC50 for equine serum BChE to IC50 for electric eel AChE
Acetylcholinesterase = Acetylcholinesterase (Electrophorus electricus, UniProt O42275); test: Inhibition of electric eel AChE using acetylthiocholine iodide as substrate preincubated for 15 mins followed by substrate addition measured for 30 mins by Ellman's method
[2] = molecular target: Acetylcholinesterase (Electrophorus electricus) (UniProt O42275); test: Mixed-type inhibition of electric eel AChE at 8 to 32 uM using acetylthiocholine iodide as substrate preincubated for 15 mins followed by substrate addition measured for 30 mins by Lineweaver-Burk plot method
[3] = molecular target: Acetylcholinesterase (Electrophorus electricus) (UniProt O42275); test: Reversible inhibition of electric eel AChE at 2 to 10 uM using acetylthiocholine iodide as substrate preincubated for 15 mins followed by substrate addition measured for 30 mins by Ellman's method
[4] = molecular target: Acetylcholinesterase (Electrophorus electricus) (UniProt O42275); test: Reversible inhibition of electric eel AChE at 6 to 16 uM using acetylthiocholine iodide as substrate preincubated for 15 mins followed by substrate addition measured for 30 mins by Ellman's method
[5] = molecular target: Acetylcholinesterase (Electrophorus electricus) (UniProt O42275); test: Mixed-type inhibition of electric eel AChE at 6 to 24 uM using acetylthiocholine iodide as substrate preincubated for 15 mins followed by substrate addition measured for 30 mins by Lineweaver-Burk plot method
[6] = molecular target: Acetylcholinesterase (Electrophorus electricus) (UniProt O42275); test: Mixed-type inhibition of electric eel AChE at 2 to 10 uM using acetylthiocholine iodide as substrate preincubated for 15 mins followed by substrate addition measured for 30 mins by Lineweaver-Burk plot method
[7] = molecular target: Acetylcholinesterase (Electrophorus electricus) (UniProt O42275); test: Mixed-type inhibition of electric eel AChE at 4 to 16 uM using acetylthiocholine iodide as substrate preincubated for 15 mins followed by substrate addition measured for 30 mins by Lineweaver-Burk plot method
[8] = molecular target: Acetylcholinesterase (Electrophorus electricus) (UniProt O42275); test: Reversible inhibition of electric eel AChE at 4 to 12 uM using acetylthiocholine iodide as substrate preincubated for 15 mins followed by substrate addition measured for 30 mins by Ellman's method
[9] = molecular target: Acetylcholinesterase (Electrophorus electricus) (UniProt O42275); test: Mixed-type inhibition of electric eel AChE at 4 to 20 uM using acetylthiocholine iodide as substrate preincubated for 15 mins followed by substrate addition measured for 30 mins by Lineweaver-Burk plot method
[10] = molecular target: Acetylcholinesterase (Electrophorus electricus) (UniProt O42275); test: Mixed-type inhibition of electric eel AChE at 7 to 28 uM using acetylthiocholine iodide as substrate preincubated for 15 mins followed by substrate addition measured for 30 mins by Lineweaver-Burk plot method

Chain of Acetylcholinesterase (Electrophorus electricus) (O42275 24-633 limits assumed): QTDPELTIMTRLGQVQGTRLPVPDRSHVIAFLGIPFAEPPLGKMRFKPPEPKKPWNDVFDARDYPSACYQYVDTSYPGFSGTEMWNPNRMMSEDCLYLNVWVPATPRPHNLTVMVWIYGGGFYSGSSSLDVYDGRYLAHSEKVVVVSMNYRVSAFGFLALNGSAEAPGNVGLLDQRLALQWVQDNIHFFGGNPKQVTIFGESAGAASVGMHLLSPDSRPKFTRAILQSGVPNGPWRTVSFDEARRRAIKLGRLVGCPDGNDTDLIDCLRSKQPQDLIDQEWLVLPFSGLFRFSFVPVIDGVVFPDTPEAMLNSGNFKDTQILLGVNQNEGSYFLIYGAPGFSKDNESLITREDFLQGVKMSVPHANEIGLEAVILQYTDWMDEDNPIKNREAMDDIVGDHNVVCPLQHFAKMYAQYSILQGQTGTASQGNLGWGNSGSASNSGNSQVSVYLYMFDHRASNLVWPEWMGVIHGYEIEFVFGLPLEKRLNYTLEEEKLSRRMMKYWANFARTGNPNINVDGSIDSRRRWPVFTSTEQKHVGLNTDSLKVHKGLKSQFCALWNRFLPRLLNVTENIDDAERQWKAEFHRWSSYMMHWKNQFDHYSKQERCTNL
Chain of Cholinesterase (P81908 whole entry): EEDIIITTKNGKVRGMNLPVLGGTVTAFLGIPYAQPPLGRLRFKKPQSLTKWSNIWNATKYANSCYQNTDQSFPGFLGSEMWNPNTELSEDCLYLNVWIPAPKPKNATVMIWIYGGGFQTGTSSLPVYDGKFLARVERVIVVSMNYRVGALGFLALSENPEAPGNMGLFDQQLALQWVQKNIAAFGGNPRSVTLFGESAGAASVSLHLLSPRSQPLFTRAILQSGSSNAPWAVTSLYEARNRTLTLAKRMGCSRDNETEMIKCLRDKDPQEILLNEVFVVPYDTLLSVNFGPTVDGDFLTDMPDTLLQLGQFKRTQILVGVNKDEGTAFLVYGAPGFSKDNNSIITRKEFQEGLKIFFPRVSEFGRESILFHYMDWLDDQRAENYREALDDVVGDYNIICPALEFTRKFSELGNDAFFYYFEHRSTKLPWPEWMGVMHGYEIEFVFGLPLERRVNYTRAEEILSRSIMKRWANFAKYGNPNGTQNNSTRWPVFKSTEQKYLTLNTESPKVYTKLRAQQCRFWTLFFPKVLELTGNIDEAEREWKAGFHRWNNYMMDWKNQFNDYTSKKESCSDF
Chain of Acetylcholinesterase (O42275 whole entry): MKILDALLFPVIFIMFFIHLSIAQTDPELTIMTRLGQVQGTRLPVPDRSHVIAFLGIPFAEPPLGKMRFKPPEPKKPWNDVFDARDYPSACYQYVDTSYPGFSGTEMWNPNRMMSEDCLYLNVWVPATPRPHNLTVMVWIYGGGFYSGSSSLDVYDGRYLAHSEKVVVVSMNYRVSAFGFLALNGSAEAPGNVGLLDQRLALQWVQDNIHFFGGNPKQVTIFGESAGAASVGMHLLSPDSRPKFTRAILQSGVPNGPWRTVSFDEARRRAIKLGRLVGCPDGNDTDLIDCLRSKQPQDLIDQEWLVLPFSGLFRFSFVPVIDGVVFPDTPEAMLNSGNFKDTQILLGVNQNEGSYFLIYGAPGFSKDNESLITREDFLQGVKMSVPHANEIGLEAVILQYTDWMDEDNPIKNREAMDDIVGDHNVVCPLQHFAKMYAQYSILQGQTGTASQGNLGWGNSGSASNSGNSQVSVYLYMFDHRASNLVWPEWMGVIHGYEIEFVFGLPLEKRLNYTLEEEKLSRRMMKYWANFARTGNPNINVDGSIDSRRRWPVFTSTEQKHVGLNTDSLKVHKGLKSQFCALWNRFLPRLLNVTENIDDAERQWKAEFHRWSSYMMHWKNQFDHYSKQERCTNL

Compound | IC50 (Cholinesterase) | Ratio IC50 [1] | IC50 (Acetylcholinesterase) | also measured
CC1=C2C[C@H]3[C@@H](CC(=O)[C@H]4C[C@@H](O)CC[C@@]43C)[C@@H]2CCC12O[C@@H]1C[C@H](C)CN[C@H]1[C@H]2C (stereo partly drawn) | 153 µM | 1.63 | 94 µM | 
C=C1C2(CC[C@H]3[C@@H]4CC(=O)[C@H]5C[C@@H](O)CC[C@]5(C)[C@H]4C[C@@]13O)O[C@@H]1C[C@H](C)CN[C@H]1[C@H]2C (stereo partly drawn) | 958 µM | 126 | 7.6 µM | inhibition [2]: Active; inhibition [3]: Active
C[C@H]1CC[C@H]2[C@H](C)[C@@H]3CC[C@@H]4[C@@H](C[C@H]5[C@H]4CC(=O)[C@H]4C[C@@H](O[C@@H]6O[C@H](CO)[C@@H](O[C@@H]7O[C@H](CO)[C@@H](O)[C@H](O)[C@H]7O)[C@H](O)[C@H]6O)CC[C@@]45C)[C@@H]3CN2C1 | 5.71 µM | 0.58 | 9.88 µM | inhibition [4]: Active; inhibition [5]: Active
C[C@H]1CC[C@@H]2[C@@H](C)[C@@H]3CC[C@@H]4[C@@H](C[C@H]5[C@H]4C[C@@H](O)[C@H]4C[C@@H](O)CC[C@@]45C)[C@@H]3CN2C1 | 2.08 µM | 0.36 | 5.85 µM | inhibition [6]: Active; inhibition [3]: Active
C[C@H]1CC[C@@H]2[C@@H](C)[C@@H]3CC[C@@H]4[C@@H](C[C@H]5[C@H]4C[C@H](O)[C@H]4C[C@@H](O[C@@H]6O[C@H](CO)[C@@H](O)[C@H](O)[C@H]6O)CC[C@@]45C)[C@@H]3CN2C1 | 13.5 µM | 0.26 | 51.5 µM | 
C[C@H]1CC[C@@H]2[C@@H](C)[C@@H]3CC[C@@H]4[C@@H](C[C@H]5[C@H]4C[C@@H](O)[C@H]4C[C@@H](O[C@@H]6O[C@H](CO)[C@@H](O)[C@H](O)[C@H]6O)CC[C@@]45C)[C@@H]3CN2C1 | 3.89 µM | 0.36 | 10.8 µM | inhibition [4]: Active; inhibition [5]: Active
C[C@H]1CC[C@@H]2[C@@H](C)[C@@H]3CC[C@@H]4[C@@H](C[C@H]5[C@H]4C[C@H](O)[C@H]4C[C@@H](O)CC[C@@]45C)[C@@H]3CN2C1 | 2.58 µM | 0.36 | 7.19 µM | inhibition [7]: Active; inhibition [3]: Active
C[C@H]1CC[C@H]2[C@H](C)[C@H]3CC[C@@H]4[C@@H](C[C@H]5[C@H]4C[C@@H](O)[C@H]4C[C@@H](O)CC[C@@]45C)[C@@H]3CN2C1 | 18.6 µM | 0.41 | 45.8 µM | 
C[C@H]1CC[C@H]2[C@H](C)[C@@H]3CC[C@@H]4[C@@H](C[C@H]5[C@H]4CC(=O)[C@H]4C[C@@H](O)CC[C@@]45C)[C@@H]3CN2C1 | 3.05 µM | 0.36 | 8.37 µM | inhibition [8]: Active; inhibition [9]: Active
C[C@H]1CC[C@H]2[C@H](C)[C@@H]3CC[C@@H]4[C@@H](C[C@H]5[C@H]4CC(=O)[C@H]4C[C@@H](O[C@@H]6O[C@H](CO)[C@@H](O)[C@H](O)[C@H]6O)CC[C@@]45C)[C@@H]3CN2C1 | 6.8 µM | 0.59 | 11.5 µM | inhibition [4]: Active; inhibition [10]: Active
C[C@H]1CC[C@@H]2N(C1)C[C@H]1[C@@H]3C[C@H]4[C@@H](CC(=O)[C@H]5C[C@@H](O[C@@H]6O[C@H](CO)[C@@H](O)[C@H](O)[C@H]6O)CC[C@@]54C)[C@@H]3CC[C@H]1[C@]2(C)O | > 100 µM |  | > 100 µM | 
C[C@H]1CC[C@@H]2N(C1)C[C@H]1[C@@H]3C[C@H]4[C@@H](CC(=O)[C@H]5C[C@@H](O)CC[C@@]54C)[C@@H]3CC[C@H]1[C@]2(C)O [IMPERIALINE] | > 100 µM |  | > 100 µM | 
